From patent publication US20040265323A1, “Compositions comprising pathogen elicited epithelial chemoattractant (eicosanoid hepoxilin A3), inhibitors thereof and methods of use thereof” (priority 2003, published 2004) come the findings set out here.

In test [1] the test system is S. typhimurium-induced PMN transepithelial migration, T84 cells. The experiment in a line: Inhibition of S. typhimurium-induced PMN transepithelial migration across T84 monolayers. Format: cell-based, human. The following applies: T84 pre-treated: baicalein 48 hours, caffeic acid 24 hours. The source says:
It was further examined if hepoxilin A3 acts in a gradient fashion to drive PMN migration from the basolateral to the apical epithelial surface. For these experiments, the physiologically directed (basolateral-to-apical) PMN transepithelial migration assay using cell culture inserts of inverted T84 monolayers has been used (McCormick et al., 1993; Parkos et al., 1992). Human PMN were isolated from normal volunteers, as described elsewhere (Parkos et al., 1992; Henson and Oades, 1975). […] PMN which completely traversed the monolayer were represented as the number of PMN (CE/ml in a total volume of 1 ml). Values were expressed as the mean and SD of an individual experiment done in triplicate repeated at least 3 times.
Hepoxilin A3 is formed via the 12-lipoxygenase (LO) metabolism pathway of arachidonic acid. Therefore, the involvement of the 12-LO pathway in the ability of the enteric pathogen, S. typhimurium, to induce PMN transepithelial migration and elicit PEEC secretion was tested. […] For 12-LO inhibition, HBSS(+)-washed T84 cell monolayers were incubated in the presence baicalein [stock concentration at 1 mM in DMSO] for 48 hours at 37° C. Subsequently, S. typhimurium SL1344 was added to the apical surface of the T84 monolayers and after an incubation of 1 hour at 37° C., the cells were washed free of non-adherent bacteria and then processed for the PMN transmigration assay. […] For 5-LO inhibition, the T84 cells were washed with HBSS(+) and then were incubated for 24 hours in the presence of caffeic acid (stock concentration at 22 mM in DMSO). Both inhibitors were purchased form Biomol, Plymouth Meeting, Pa.
In each instance, the T84 cell monolayers were incubated for […] in the presence of the inhibitor prior to the addition of S. typhimurium.

The subject of a further test is IL-8 secretion. The test can be described thus: IL-8 secretion by S. typhimurium infected T84 cell monolayers. Format: cell-based, human. The following applies: S. typhimurium infected T84, baicalein 1 μM.
The test system of test [2] is PEEC/hepoxilin A3 secretion. The test can be described thus: Apical PEEC/hepoxilin A3 release from S. typhimurium infected T84 cell monolayers. It counts as cell-based, human. The following applies: S. typhimurium infected T84 with 12-LO inhibitor. The source says:
T84 cell monolayers were infected with S. typhimurium in the absence or presence of the 12-LO enzyme inhibitor and apical supernatants were examined for PEEC bioactivity. […] Moreover, since it had been previously shown that S. typhimurium via its effector SipA initiates an ARF6-dependent lipid-signaling cascade that directs the activation of PKC and release of PEEC, it was further examined if blocking PKC activity (which would occur upstream of 12-LO) also corresponds with a reduction in hepoxilin A3 bioactivity and release, as one would predict.

Test [3] relates to P. aeruginosa-induced PMN transepithelial migration, A549 cells. The test can be described thus: P. aeruginosa-induced PMN transepithelial migration across A549 cell monolayers. It counts as cell-based, human. The following applies: A549 monolayers, FIG. 5C. The source says:
(§1) It was further determined whether similar hepoxilin A3 recruitment of PMN by apically attached pathogens might occur at other mucosal surfaces. Pseudomonas aeruginosa is the most prominent bacterial spp. present during chronic infection in cystic fibrosis and chronic obstructive pulmonary disease patients and is accompanied by severe inflammation, including the emigration of PMN to the airway lumen (Pizurki et al., 2000; Jahn et al., 2000; Weiss, S. 1989). As a model for the airway epithelium the A549 cell line was used. This cell line is capable of forming a polarized barrier, and is widely employed as a model for the airway epithelial surface (Smart and Casale, 1994). […] Finally, the secretion of hepoxlin A3 in vitro was quantified using this A549 model system. For these experiments, A549 lung epithelial cells (ATTC) were grown in F12K media (Invitrogen) with 10% FBS, and maintained in culture similar to the T84 cell line. The wild type P. aeruginosa (PAO1) was used for infection of A549 after overnight aerobic growth (Luria broth) at 37° C.

A further test has as its system hepoxilin A3 secretion. The test can be described thus: Hepoxilin A3 release from P. aeruginosa infected A549 cell monolayers. The note with it: A549 treated with inhibitor prior to P. aeruginosa infection; listed as 12-LO inhibitor. It counts as cell-based, human.
Excerpt: as §1
The apical compartment of A549 cell monolayers treated for 90 minutes with P. aeruginosa had approximately 210 pmoles in the apical compartment and nearly 130 pmoles in the basolateral compartment. […]

The subject of test [4] is S. typhimurium-infected human intestinal xenografts. The test can be described thus: Histopathology of human intestinal xenografts infected with S. typhimurium. Format: in vivo. The note with it: 1 μM in 100 μl intralumenally 2 hours prior to infection; xenografts in SCID mice; 15 hours after infection. As to the method: Further, the effect of baicalein on S. typhimurium pathology in human intestinal xenografts was determined (Savidge et al., 1995) (FIG. 7). The human fetal intestinal xenograft model used in the present study has been previously described in detail (Savidge et al., 1995). Briefly, human fetal small intestine (n=3, gestational age 10-14weeks) was transplanted subcutaneously into C.B-17 severe-combined immunodeficient (SCID) mice. Xenografts were allowed to develop for a period between 10-20 weeks before use at which time the epithelium and underlying mucosa is fully differentiated (Savidge et al., 1995). Xenografts were infected with approximately 5×10^7 wild type S. typhimurium SL1344 in sterile HBSS(+) buffer in a 100 μl volume injected intralumenally by subcutaneous injection. Xenografts receiving the drug treatment were injected with 1 μM baicalein in a 100 μl volume 2 hours prior to infection with S. typhimurium (in the continued presence of 1 μM baicalein). Xenograft tissue was removed 15 hours after infection, extensively washed, and snap frozen in OCT compound.
A severe vascular disturbance was also noted. These outcomes are all consistent with the clinical manifestations observed from S. typhimurium infection in humans.
A general note: A xenograft is tissue or cells of one species grown in another, often human tumour cells in immunodeficient mice.

For another test, the system named is MRP-2. The test can be described thus: MRP-2 expression in large bowel of CD45Rbhi T cell transferred mice. Format: in vivo. The note with it: sick mice after treatment, FIG. 11C. As for the experimental part:
The upper third of the large bowel from these mice were excised, and fixed in OCT. Slides from these tissues were prepared and fluorescently probed for MRP-2 expression. […] Thus, in the efflux pathway for hepoxilin A3, MRP-2 is in fact activated during the disease phase and suppressed upon baicalein treatment

“Also recorded” adds a separate entry of the source.

With `O=c1cc(-c2ccccc2)oc2cc(O)c(O)c(O)c12` [baicalein], the “S. typhimurium-induced PMN transepithelial migration with lipoxygenase inhibitor” value in test [1] is listed as “attenuated S. typhimurium-induced PMN transepithelial migration in a concentration-dependent fashion; also recorded: dose dependent decrease”. The IL-8 secretion in the test with IL-8 secretion was 577 ± 35 pg/mL. For the same molecule, in test [2], the “PEEC secretion (bioactivity of apical supernatants)” value is “significant decrease in PEEC secretion; also recorded: dramatically reduced”. Further, the “P. aeruginosa-induced PMN transepithelial migration with 12-LO inhibitor” value in test [3] is listed as “inhibited”. In the test with hepoxilin A3 secretion, the “hepoxilin A3 levels released” value is on record as “no detectable levels of hepoxilin A3”. The “histopathology / severity of intestinal inflammation” value in test [4] is reported as “only minimal alterations detectable; also recorded: significantly reduced; also recorded: significantly less severe”. Moreover, the “MRP-2 expression at apical surface of intestinal epithelium” value in the test with MRP-2 is “completely suppressed”.
